Consider one molecule from US11976062B2, “Benzisoxazole compound” (OSAKA UNIVERSITY, priority 2018, dated 2024).

Molecules are shown by their SMILES.

In data set [1] the test system is α-SMA expression induced by TGFβ2 in cardiac fibroblasts. The experiment in a line: Fibrosis inhibition evaluation 2: immunofluorescent staining of α-SMA in cardiac fibroblasts. The data set is classed as cell-based, rats. The following applies: 10 μM, TGFβ2 2 ng/ml, 48 hours, FIG. 8. As to the method: (§1) In the same manner as in Test Example 5, dermal fibroblasts were isolated from mice, and sterilized cover glass (diameter: 12 mm) was placed in a 12-well plate. On the cover glass, 2.5×10^5 cells were seeded and grown. After 24 hours, the medium was replaced with a medium free of fetal bovine serum, and the cells were cultured for another 24 hours. Separately, cardiac fibroblasts were isolated from 1 to 2-day-old rats and treated in the same manner as for the dermal fibroblasts. Thereafter, 10 ng/ml TGFβ1 was added to the dermal fibroblasts, and 2 ng/ml TGFβ2 was added to the cardiac fibroblasts, followed by culturing the cells for 48 hours. At the same time as TGFβ was added, 10 μM of a test compound (compound 011), 10 μM of Pyr 2 (conventional inhibitor), or DMSO (solvent control) was also added. Separately, cultured cells to which TGFβ-free phosphate buffered saline (PBS) was added were also prepared. […] After blocking with 1% bovine serum albumin, α-SMA was detected using anti-α-SMA antibody (Sigma) as the primary antibody and anti-mouse IgG antibody (Molecular Probes) fused with Alexa 488 as the secondary antibody, and an image was acquired using a fluorescence microscope (Keyence) with a 20× objective lens. The average fluorescence brightness (fluorescence intensity/pixel) per cell area was calculated and analyzed using Image J software.

In data set [2] the test system is α-SMA expression induced by TGFβ1 in dermal fibroblasts. The experiment in a line: Fibrosis inhibition evaluation 1: western blotting of α-SMA in dermal fibroblasts. It counts as cell-based, mice. The following applies: compound 011 0.1, 1, 10 μM (especially 10 μM); Pyr 2 10 μM; TGFβ1 10 ng/ml, 48 hours. On the procedure:
The expression of α-smooth muscle actin (α-SMA) in fibroblasts was evaluated by western blotting. Dermal fibroblasts were isolated from 1 to 3-day-old mice, and 2.5×10^5 cells were seeded in a 12-well plate. After 24 hours, the medium was replaced with a medium free of fetal bovine serum, and the cells were cultured for another 24 hours. Thereafter, 10 ng/ml of transforming growth factor β1 (TGFβ1) was added, and the cells were cultured for 48 hours. At the same time as TGFβ1 was added, a test compound (compound 011) of a predetermined concentration (0.1 μM, 1 μM, 10 μM) and 10 μM of Pyr 2 or DMSO (solvent control) were also added. […] The cultured cells were dissolved in a lysis buffer (140 mM NaCl, 20 mM Tris-HCl pH 7.8, 1% Triton-X100, 0.05% sodium deoxycholate, 0.1% SDS, 2 mM EDTA, proteinase inhibitor cocktail), and separated by SDS-PAGE, followed by detecting α-SMA using anti-α-SMA antibody (Sigma) as the primary antibody and anti-mouse IgG antibody (cell signaling) fused with horse radish peroxidase as the secondary antibody.
(A western blot detects proteins with antibodies after separation by electrophoresis.)

In data set [3] the test system is renal interstitial fibrosis caused by unilateral ureteral obstruction. The following applies: mice; cited from earlier work.
In data set [4] the test system is α-SMA expression induced by TGFβ1 in dermal fibroblasts. The experiment in a line: Fibrosis inhibition evaluation 2: immunofluorescent staining of α-SMA in dermal fibroblasts. The data set is classed as cell-based, mice. Particulars: 10 μM, TGFβ1 10 ng/ml, 48 hours, FIG. 7. On the procedure:
as §1

A further data set concerns dermal fibroblasts. Description: Fibrosis inhibition evaluation 1: cell morphology observation of dermal fibroblasts. The data set is classed as cell-based, mice. The following applies: dermal fibroblasts cultured 48 hours with TGFβ1.

Consider `Cc1nnsc1C(=O)Nc1ccc(-n2nc(C(F)(F)F)cc2C(F)(F)F)cc1` [Pyr 2, reference compound], for which the “expression of α-SMA induced by TGFβ (immunofluorescent staining)” value in data set [1] and in data set [4] was “almost completely suppressed the expression of α-SMA” each time. Besides, the “expression of α-SMA induced by TGFβ1 (western blotting)” value in data set [2] is given as “lighter coloration of the α-SMA antibody compared with the control”. Moreover, the “suppression of renal interstitial fibrosis caused by unilateral ureteral obstruction” value in data set [3] is given as “suppresses renal interstitial fibrosis caused by unilateral ureteral obstruction”. Moreover, the “cell morphology / cell damage by microscopic observation” value with dermal fibroblasts is “cell elongation”.
